Patent US20180235931A1, “USE OF NEUROKININ-1 ANTAGONISTS AS ANTITUSSIVES” (Menlo Therapeutics Inc., priority 2017, published 2018)

How the values were obtained:
[1] = In vitro skin permeation, Franz diffusion cell; type: in vitro ADME; details: topical formulations B and C on human skin, 37 C, LC-MS/MS
Method: In vitro skin permeation of serlopitant in topical formulations A-D was evaluated using a Franz diffusion cell. FIG. 1 illustrates a Franz diffusion cell. A Franz diffusion cell having a circular permeation area of 4.15 cm^2 and a receptor chamber volume of 19 mL was set up with a thermo-regulated outer water jacket to maintain the temperature at 37° C. The receptor chamber was filled with 19 mL 1×PBS (pH 7.5) containing 10% ethanol and 1% Tween® 80.
Human skin was pre-treated to remove all subcutaneous fat and was cleaned with 70% ethanol before use. The skin was visually inspected to ensure that it was free of any surface irregularity or small holes and was equally divided into four pieces. The skin was then mounted onto the receptor chamber with the stratum corneum side facing up. About 100 mg of topical formulation A, B, C or D was applied to the skin (actual weight: A, 103.8 mg; B, 101.3 mg; C, 103.2 mg; and D, 103.8 mg), which was then covered with parafilm to avoid evaporation. […]
All samples were processed by solid-phase extraction (SPE) before LC-MS/MS analysis. […] Serlopitant concentrations in samples resulting from formulations A-D were determined by comparison to the standard. Serlopitant was not detected in samples resulting from topical formulations A and D, as expected. […] After an initial lag, serlopitant was detected by LC-MS/MS in the receptor chamber at 6 hours.

[2] = Solubility test of serlopitant in Franz cell receptor solution; type: physicochemical
[3] = cited from earlier work

CC(O[C@H]1CC[C@@H]2CN(C3=CC(=O)CC3)C[C@H]2[C@@H]1c1ccc(F)cc1)c1cc(C(F)(F)F)cc(C(F)(F)F)c1 (stereo partly drawn) [serlopitant]
time at which serlopitant was detected in the receptor chamber after initial lag [1]: 6 h
solubility in receptor solution ([2]; 0.5, 5 and 50 ug/mL in 1xPBS (pH 7.5) containing 10% ethanol and 1% Tween 80, 1 hour at 37 C): remained soluble
solubility if Tween 80 was not used ([2]; receptor solution without Tween 80): decreased significantly
solubility if ethanol was not used ([2]; receptor solution without ethanol): decreased slightly

C[C@@H](O[C@H]1CC[C@@H]2CN(C3=CC(=O)CC3)C[C@H]2[C@@H]1c1ccc(F)cc1)c1cc(C(F)(F)F)cc(C(F)(F)F)c1 [Form I]
hygroscopicity ([3]; all tested relative humidity conditions): non-hygroscopic
thermodynamic stability ([3]; below 70 C, Form I vs Form II): thermodynamically more stable
